The values that follow come from patent US9670211B2, “Aza-oxo-indoles for the treatment and prophylaxis of respiratory syncytial virus infection” (Hoffmann-La Roche Inc., priority 2013, dated 2017).

One assay has as its system RSV Long strain. Briefly: Viral Cytopathic Effect (CPE) Assay. The conditions noted are these: human respiratory syncytial virus, 144 h; RSV Long strain (ATCC), cell viability after 6 days by Cell Counting kit-8. The assay is classed as cell-based. As for the experimental part:
Viral Cytopathic Effect (CPE) Assay
To measure anti-RSV activity of compounds, 96-well plates are seeded with 6×10^3 cells per well in Dulbecco's modified Eagle's medium (DMEM) containing 10% fetal bovine serum (FBS). Cells are infected the next day with sufficient RSV Long strain (ATCC) to produce an approximately 80-90% cytopathic effect after 6 days, in the presence of serial half-log diluted compound in a total volume of 200 μL per well. The viability of cells is assessed after 6 days using Cell Counting kit-8 (Dojindo Molecular Technologies). The absorbance at 450 nm and referenced at 630 nm is measured to determine 50% effective concentration (EC50).
A general note: Damage to the host cells serves as the signal in cytopathic effect assays.

For another assay, the system named is RSV infection. As to conditions: intramuscularly at 15 mg/kg once a month for the duration of RSV season, selected infants; cited from earlier work.

By EC50 is commonly meant the concentration at which the effect is half-maximal. Higher therefore signals weaker potency. `O=C1CCC(n2c(CN3C(=O)C4(CC4)c4ccncc43)nc3cc(Cl)ccc32)CN1` (stereo not drawn) [Example 7-1, 1′-{[5-Chloro-1-(6-oxopiperidin-3-yl)-1H-benzimidazol-2-yl]methyl}spiro[cyclopropane-1,3′-pyrrolo[2,3-c]pyridin]-2′(1′H)-one] registered an EC50 with RSV Long strain of 2 nM.
`O=C1CC(n2c(CN3C(=O)C4(CC4)c4ccncc43)nc3cc(Cl)ccc32)CN1` (stereo not drawn) [Example 7-2, 1′-{[5-Chloro-1-(5-oxopyrrolidin-3-yl)-1H-benzimidazol-2-yl]methyl}spiro[cyclopropane-1,3′-pyrrolo[2,3-c]pyridin]-2′(1′H)-one] returned an EC50 with RSV Long strain of 9 nM. This EC50 is about 4.5-fold higher than that of the compound before.
In the case of `CN1CC(n2c(CN3C(=O)C4(CC4)c4ccncc43)nc3cc(Cl)ccc32)CC1=O` (stereo not drawn) [Example 8-1, 1′-{[5-Chloro-1-(1-methyl-5-oxopyrrolidin-3-yl)-1H-benzimidazol-2-yl]methyl}spiro[cyclopropane-1,3′-pyrrolo[2,3-c]pyridin]-2′(1′H)-one], the EC50 in the assay with RSV Long strain turned out to be 6 nM.
Take `CCN1CC(n2c(CN3C(=O)C4(CC4)c4ccncc43)nc3cc(Cl)ccc32)CC1=O` (stereo not drawn) [Example 8-2, 1′-{[5-Chloro-1-(1-ethyl-5-oxopyrrolidin-3-yl)-1H-benzimidazol-2-yl]methyl}spiro[cyclopropane-1,3′-pyrrolo[2,3-c]pyridin]-2′(1′H)-one]: it took 1.1 nM to reach a half-maximal effect in the assay on RSV Long strain (EC50).
As for `O=C1N(Cc2nc3cc(Cl)cc(F)c3n2[C@H]2CCS(=O)(=O)C2)c2cnccc2C12CC2` [Example 9-1, 1′-({5-Chloro-1-[(3S)-1,1-dioxidotetrahydrothiophen-3-yl]-7-fluoro-1H-benzimidazol-2-yl}methyl)spiro[cyclopropane-1,3′-pyrrolo[2,3-c]pyridin]-2′(1′H)-one], the midpoint of the response with RSV Long strain, the EC50, lay at 13 nM. Against the preceding compound, the EC50 is about 12-fold higher.
Still for that read-out and setting: then `O=C1N(Cc2nc3cc(Cl)cc(F)c3n2[C@@H]2CCS(=O)(=O)C2)c2cnccc2C12CC2` [Example 9-2, 1′-({5-Chloro-1-[(3R)-1,1-dioxidotetrahydrothiophen-3-yl]-7-fluoro-1H-benzimidazol-2-yl}methyl)spiro[cyclopropane-1,3′-pyrrolo[2,3-c]pyridin]-2′(1′H)-one], with 0.7 nM; and `O=C1N(Cc2nc3cc(Cl)ccc3n2C2CCNCC2)c2cnccc2C12CC2` [Example 10-1, 1′-{[5-Chloro-1-(piperidin-4-yl)-1H-benzimidazol-2-yl]methyl}spiro[cyclopropane-1,3′-pyrrolo[2,3-c]pyridin]-2′(1′H)-one], with 78 nM; and `O=C1N(Cc2nc3cc(Cl)ccc3n2C2CNC2)c2cnccc2C12CC2` [Example 10-2, 1′-{[1-(Azetidin-3-yl)-5-chloro-1H-benzimidazol-2-yl]methyl}spiro[cyclopropane-1,3′-pyrrolo[2,3-c]pyridin]-2′(1′H)-one], with 138 nM.
`CC(C)C(=O)N1CC[C@@H](n2c(CN3C(=O)C4(CC4)c4ccncc43)nc3cc(Cl)ccc32)C1` [Example 11, 1′-({5-Chloro-1-[(3R)-1-(2-methylpropanoyl)pyrrolidin-3-yl]-1H-benzimidazol-2-yl}methyl)spiro[cyclopropane-1,3′-pyrrolo[2,3-c]pyridin]-2′(1′H)-one] showed an EC50 with RSV Long strain of 3 nM.
In the assay with RSV Long strain, `CS(=O)(=O)N1CC(n2c(CN3C(=O)C4(CC4)c4ccncc43)nc3cc(Cl)ccc32)C1` [Example 12, 1′-({5-Chloro-1-[1-(methylsulfonyl)azetidin-3-yl]-1H-benzimidazol-2-yl}methyl)spiro[cyclopropane-1,3′-pyrrolo[2,3-c]pyridin]-2′(1′H)-one] registered an EC50 of 1.8 nM.
On the same count and under the same terms, with `O=C1N(Cc2nc3cc(Cl)ccc3n2[C@H]2C[C@@H](O)C2)c2cnccc2C12CC2` [Example 14-1, 1′-{[5-Chloro-1-(cis-3-hydroxycyclobutyl)-1H-benzimidazol-2-yl]methyl}spiro[cyclopropane-1,3′-pyrrolo[2,3-c]pyridin]-2′(1′H)-one] the figure was 7 nM.
Turning to `O=C1N(Cc2nc3cc(Cl)ccc3n2[C@H]2C[C@H](O)C2)c2cnccc2C12CC2` [Example 14-2, 1′-{[5-Chloro-1-(trans-3-hydroxycyclobutyl)-1H-benzimidazol-2-yl]methyl}spiro[cyclopropane-1,3′-pyrrolo[2,3-c]pyridin]-2′(1′H)-one], the midpoint of the response with RSV Long strain, the EC50, lay at 0.8 nM.
Turning to `O=C1N(Cc2nc3cc(Cl)ccc3n2C2CNS(=O)(=O)C2)c2cnccc2C12CC2` (stereo not drawn) [Example 15, 1′-{[5-Chloro-1-(1,1-dioxido-1,2-thiazolidin-4-yl)-1H-benzimidazol-2-yl]methyl}spiro[cyclopropane-1,3′-pyrrolo[2,3-c]pyridin]-2′(1′H)-one], the EC50 in the assay with RSV Long strain was 1.6 nM.
In the case of `O=C1N(Cc2nc3cc(Cl)ccc3n2C2CNC3(COC3)C2)c2cnccc2C12CC2` (stereo not drawn) [Example 16, 1′-{[5-Chloro-1-(2-oxa-5-azaspiro[3.4]oct-7-yl)-1H-benzimidazol-2-yl]methyl}spiro[cyclopropane-1,3′-pyrrolo[2,3-c]pyridin]-2′(1′H)-one], the EC50 in the assay with RSV Long strain amounted to 2.2 nM.
The compound `O=C1N(Cc2cc3cc(Cl)cc(F)c3n2C2CCS(=O)(=O)C2)c2cnccc2C12CC2` (stereo not drawn) [Example 17, 1′-{[5-Chloro-1-(1,1-dioxidotetrahydrothiophen-3-yl)-7-fluoro-1H-indol-2-yl]methyl}spiro[cyclopropane-1,3′-pyrrolo[2,3-c]pyridin]-2′(1′H)-one] showed an EC50 in the assay on RSV Long strain of 0.6 nM.
`O=C1N(Cc2cc3cc(Cl)ccc3n2C2CCS(=O)(=O)C2)c2cnccc2C12CC2` (stereo not drawn) [Example 18, 1′-{[5-Chloro-1-(1,1-dioxidotetrahydrothiophen-3-yl)-1H-indol-2-yl]methyl}spiro[cyclopropane-1,3′-pyrrolo[2,3-c]pyridin]-2′(1′H)-one]: in the assay on RSV Long strain, the response was half-maximal at 1.9 nM (EC50).
In the case of `O=C1N(Cc2cc3cc(Cl)cnc3n2C2CCS(=O)(=O)C2)c2cnccc2C12CC2` (stereo not drawn) [Example 19, 1′-{[5-Chloro-1-(1,1-dioxidotetrahydrothiophen-3-yl)-1H-pyrrolo[2,3-b]pyridin-2-yl]methyl}spiro[cyclopropane-1,3′-pyrrolo[2,3-c]pyridin]-2′(1′H)-one], the EC50 in the assay on RSV Long strain is 6 nM.
As to “palivizumab: humanized monoclonal antibody against RSV fusion (F) protein approved for prophylaxis in high-risk infants”, the “reduction of hospitalization rate caused by RSV infection” value in the assay with RSV infection was 45-55%.
